One may read the IC50 as the concentration at which inhibition is half-maximal. Lower therefore signals higher potency.

The assay concerns the target T1, protein tyrosine phosphatase 1B (PTP1B) (Homo sapiens, UniProt P18031).
T1 construct: gene PTPN1; Recombinant human GST-PTP1B
T1 sequence (P18031 1-435): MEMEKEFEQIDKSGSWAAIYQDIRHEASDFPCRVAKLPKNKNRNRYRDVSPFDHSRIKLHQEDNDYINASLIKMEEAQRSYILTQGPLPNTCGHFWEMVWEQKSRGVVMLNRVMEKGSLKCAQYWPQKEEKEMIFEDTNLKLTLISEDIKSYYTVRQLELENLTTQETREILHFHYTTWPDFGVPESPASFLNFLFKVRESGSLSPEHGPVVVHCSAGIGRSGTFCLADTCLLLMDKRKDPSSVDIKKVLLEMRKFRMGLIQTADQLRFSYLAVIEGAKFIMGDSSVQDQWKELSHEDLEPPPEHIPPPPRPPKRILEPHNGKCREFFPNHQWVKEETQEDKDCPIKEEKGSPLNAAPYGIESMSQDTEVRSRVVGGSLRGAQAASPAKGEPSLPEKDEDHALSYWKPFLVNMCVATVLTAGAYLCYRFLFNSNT
Kind of assay: pNPP hydrolysis assay with purified GST-PTP1B, absorbance at […] nm. Format: biochemical.

For the molecule `C[C@H]1[C@H](C)CC[C@]2(C(=O)O)CC[C@]3(C)C(=CC[C@@H]4[C@@]5(C)C[C@@H](O)[C@H](O)C(C)(C)[C@@H]5CC[C@]43C)[C@H]12` [compound 3, corosolic acid], the IC50 worked out at 0.69 µM. In the case of `C=C1[C@H](O)[C@H](O)C[C@]2(C)[C@H]3CC=C4[C@@H]5CC(C)(C)CC[C@]5(C(=O)O)CC[C@@]4(C)[C@]3(C)CC[C@@H]12` [compound 4, 2α,3α-dihydroxy-24-nor-4(23),12-oleanadien-28-oic acid] it was 3.98 µM.

Values taken from PMC6268547, “A New Ursane-Type Nor-Triterpenoid from the Leaves of Eucommia ulmoides Oliv” (Molecules, 2012).
